Measurements taken from US20260002931A1, “CULTURED CELL SHEET AND METHOD FOR PRODUCING SAME; METHOD FOR EVALUATING COMPOUND OR DRUG; AND METHOD FOR EVALUATING QUALITY OF CULTURED CELL SHEET” (OJI HOLDINGS CORPORATION, priority 2022, published 2026).

Experiments:
[1] = system: CM2 (human iPS cell-derived cardiomyocytes); test: Measurement of oxygen consumption rate with β-oxidation inhibitor; assay type: cell-based; details: day 27, 50 μM; for OCR with addition of Etomoxir: 10 to 70 minutes
Procedure: The measurement was performed using an oxygen consumption rate plate assay kit (manufactured by DOJINDO LABORATORIES, E297).
To the well plate in which CM2 was cultured, an oxygen probe diluted with medium was added and allowed to stand for 30 minutes in a plate reader incubated at 37° C. in advance. Next, a sample solution containing a β-oxidation inhibitor Etomoxir that inhibits a fatty acid metabolism enzyme at the final concentration 50 μM was added, and mineral oil was immediately added dropwise to block the supply of oxygen.
After allowing the well plate to stand for 5 minutes in a plate reader incubated at 37° C., the fluorescence intensity was measured over time. The fluorescent plate reader was measured under conditions of an excitation wavelength of 495 nm/fluorescence wavelength of 650 nm, and the data acquisition was performed for at least 168 minutes every 10 minutes.
The measurement was performed with 6 wells without addition of Etomoxir as control and 3 wells with addition of 50 μM Etomoxir.
The oxygen concentration (pmol) was calculated with the calculation sheet attached to the oxygen consumption rate plate assay kit, and the oxygen consumption rate (pmol/min) was calculated from the oxygen concentration reduction amount for 60 minutes of 10 to 70 minutes after the start of the measurement.

[2] = system: iCell cardiomyocyte CM2 (human iPS cell-derived cardiomyocytes); test: Drug safety test-1: arrhythmia measurement by Ca-imaging (CQ1); assay type: cell-based; details: for duration (20% waveform width of Ca transient) / interval between peaks of Ca transient: cumulative dose1-dose3 of Table 2
Procedure: (§1) The drug was dissolved in DMSO and cumulatively administered. First, the measurement as dose0 was performed without adding drugs. […] Subsequently, immediately after the measurement, the drug was added to the same well, respectively so that the concentration was dose2, and the measurement was performed after 15 minutes. The same was done for dose3.
(§2) For the cell responsiveness after the drug administration, an arrhythmia measurement method by Ca-imaging using a confocal imaging device (CQ1, manufactured by Yokogawa Electric Corporation) and a motion test method using a live cell imaging device (SI8000, manufactured by Sony Corporation) were performed to investigate the effect on the beating rate and the line width of the beating peak.
To CM2 on day 6 of maintenance culture, a fluorescent Ca indicator (EarlyTox carditotoxicity kit, manufactured by Molecular Devices, LLC.) was added, and living cells were stained. First, the change in Ca fluorescence intensity associated with the contraction of cardiomyocytes was measured as Dose0 in CQ1 without adding drugs. Immediately after the measurement, each drug at the concentration of Dose1 was added to the same well plate, and the change in Ca fluorescence intensity was measured after 15 minutes. For Dose2 and Dose3, the drug was cumulatively administered in the same manner, and the change in Ca fluorescence intensity was measured. The addition test of each drug was performed at n=6.
The significant difference test was performed between the subject group in which DMSO was added and the drug addition group in CM2 cultured in the planar plate and CM2 cultured the aligned plate.
For the side effects seen from the waveform changes of Ca transient, early after depolarization (EAD) and delayed after depolarization (DAD), small regular waveforms (VT-like), and reaction (waveform) disappearance were recorded. The“−” in the table indicates the state in which no arrhythmia or the like has occurred. The degree of arrhythmia is mild for EAD, moderate for DAD, and severe for vt-like.

[3] = system: iCell cardiomyocyte CM2 (human iPS cell-derived cardiomyocytes); test: Drug safety test-1: motion test method using live cell imaging device (SI8000); assay type: cell-based; details: for CRD (corrected with the beating rate): Dose2 0.3 μM and Dose3 1 μM, vs DMSO group; for beating rate (BR) / relaxation velocity (RV): day 5, cumulative dose1-dose3 of Table 2; for CRD (corrected with beating rate): Dose1 1 μM, Dose2 3 μM, Dose3 10 μM
Procedure: as §1, §2
CM2 on day 5 of maintenance culture was used, and video data was first obtained as Dose0 using SI8000 (manufactured by Sony Corporation) without adding drugs. Immediately after the measurement, each drug at the concentration of dose1 was added to the same well plate, and video data was obtained after 15 minutes. For Dose2 and Dose3, the drug was cumulatively administered in the same manner, and video data was obtained. The addition test of each drug was performed at n=6.
The beating rate (BR), the contractile velocity (CV), the relaxation velocity (RV), and the contraction-relaxation duration (CRD) were analyzed from the video data of S18000, and the effects of the drugs on the motion of the cells were compared. The contraction-relaxation duration (CRD) was corrected by the following equation with reference to the equation of Frederica to correct variation due to the beating rate (BR).
For the side effects seen from the change in the parameters of SI8000, early after depolarization (EAD) and delayed after depolarization (DAD), small regular waveforms (VT-like), and reaction (waveform) disappearance were recorded. Changes in waveforms not classified into EAD or DAD were described as arrhythmia. The “-” in the table indicates the state in which no arrhythmia or the like has occurred.
The degree of arrhythmia is mild for EAD, moderate for DAD, and severe for vt-like.

[4] = system: iCell cardiomyocytes CM2 (human iPS cell-derived cardiomyocytes); test: Drug safety test-2: motion test method using live cell imaging device, CM2 cultured for 15 days; assay type: cell-based; details: for beating rate (BR), relative to dose0 / contractile velocity (CV), relative to dose0 / relaxation velocity (RV), relative to dose0: day 15, doses of Table 7, 120 min isoproterenol, 15 min milrinone
Procedure: The drug used was isoproterenol and milrinone. […] First, the measurement as dose0 was performed without adding drugs.
For the cell responsiveness after drug administration, a motion test method using a live cell imaging device (SI8000, manufactured by Sony Corporation) was performed to investigate the effect on the beating rate, the contractile velocity, and the relaxation velocity.
CM2 on day 15 of maintenance culture was used, and video data was first obtained as dose0 using SI8000 (manufactured by Sony Corporation) without adding drugs. Immediately after the measurement, each drug at the concentration of each dose was added to the same well plate, and video data was obtained after 120 minutes for isoproterenol and after 15 minutes for milrinone. The addition test of each drug was performed at n=5.
The beating rate (BR), the contractile velocity (CV), and the relaxation velocity (RV) were analyzed from the video data of SI8000, and the effects of the drugs on the motion of the cells were compared.
The measurement data was corrected with the average value of dose0 of no adding drugs (each measurement value/measurement value of dose0), and the relative value with setting the measurement value of dose0 as 1 was determined.

[5] = system: iCell cardiomyocyte CM2 (human iPS cell-derived cardiomyocytes); test: Drug safety test-3 (anti-cancer drug): motion test method using live cell imaging device, CM2 cultured for 15 days; details: 3 μM; for beating rate (BR), change rate vs pre-measurement: day 15, after 24 and 48 hours
Procedure: iCell cardiomyocytes (iCell Cardiomyocyte v2.0, manufactured by FUJIFILM Cellular Dynamics, Inc.) were used as human iPS cell-derived cardiomyocytes (hereinafter referred to as CM2). The culture was performed by the following procedure.
In the same procedure as in the above (10), CM2 was seeded at a concentration of 6×10^4 cells/well in the aligned plate (96 well plate, ND Cell Aligner) and the planar plate (96 well plate). A maintenance culture was performed in a 37° C. CO2 incubator, and the drug was administered on day 15 with setting the day of seeding as day 0.
The drug was dissolved in DMSO and administered. First, as a pre-measurement, a measurement was performed without adding the drug. Immediately after the measurement, the drug dissolved in DMSO was added to each well so that the concentration was 3 PM, and the measurement was performed after 24 hours and 48 hours. The measurement was performed in the same manner as the (10-1) measurement by motion test method using live cell imaging device described above.
For the measurement data, the measurement value at the concentration of 3 μM was corrected with the average value of the pre-measurement without adding the drug (measurement value at 3 μM/measurement value of pre-measurement), and the change rate with setting the measurement value of the pre-measurement as 1 was determined.
In addition, a T test was performed between the planar plate and the aligned plate in the drug addition group. For the comparison group with a P value of 0.01 or less, the graph was marked.
DMSO used as the solvent was added so that the final concentration was 0.01%. The effect of DMSO was confirmed by measuring 0.01% DMSO addition group after 24 hours and 48 hours. The measurement data were processed in the same manner as the drug addition group.

[6] = aligned and planar plates, day 6

CCOC(=O)[C@@]1(CCCCCCOc2ccc(Cl)cc2)CO1 [Etomoxir]
OCR compared to OCR before addition ([1]; aligned plate): 11.0% | OCR with addition of Etomoxir ([1]; aligned plate): 7.0 pmol/min | OCR compared to OCR before addition ([1]; planar plate): 98.3% | OCR with addition of Etomoxir ([1]; planar plate): 77.8 pmol/min

C=C[C@H]1C[N@@]2CC[C@H]1C[C@@H]2[C@@H](O)c1ccnc2ccc(OC)cc12 [Quinidine]
incidence of moderate to severe arrhythmia (DAD, VT-like) ([2]; aligned plate, quinidine Dose1, 3 μM, wells of 6): 0/6 | incidence of moderate to severe arrhythmia (DAD, VT-like) ([2]; aligned plate, quinidine Dose2, 10 μM, wells of 6): 0/6 | incidence of moderate to severe arrhythmia (DAD, VT-like) ([2]; aligned plate, quinidine Dose3, 30 μM, wells of 6): 6/6 | incidence of moderate to severe arrhythmia ([2]; planar plate, quinidine Dose1, 3 μM, wells of 6): 0/6 | incidence of moderate to severe arrhythmia ([2]; planar plate, quinidine Dose2, 10 μM, wells of 6): 0/6 | incidence of moderate to severe arrhythmia ([2]; planar plate, quinidine Dose3, 30 μM, wells of 6): 4/6 | duration of Ca transient, planar plate compared to aligned plate ([2]; quinidine Dose2, 10 μM): longer extension | interval of Ca transient, planar plate compared to aligned plate ([2]; quinidine Dose2, 10 μM): longer extension | peak height of Ca transient, planar plate compared to aligned plate ([2]; quinidine Dose2, 10 μM): significantly weaker decrease | contraction force ([2]; quinidine Dose3, 30 μM): greatly reduced | waveform of Ca transient ([2]; quinidine Dose3, 30 μM): changed to a higher frequency waveform

Cc1cccc(CCN2CCC(C(=O)c3ccc(NS(C)(=O)=O)cc3)CC2)n1 [E-4031]
CRD (corrected with the beating rate) ([3]; aligned plate): significantly reduced | beating rate (BR) ([3]; aligned plate): reduced | relaxation velocity (RV) ([3]; aligned plate): reduced | CRD (corrected with the beating rate) ([3]; planar plate): significantly reduced | CRD (corrected with the beating rate), planar plate compared with aligned plate ([3]; planar plate, E-4031): reduced more remarkably | beating rate (BR) ([3]; planar plate): reduced | relaxation velocity (RV) ([3]; planar plate): reduced | Duration of Ca transient, planar plate compared with aligned plate ([2]; E-4031 0.1 μM, day 6): slightly longer | Duration of Ca transient, planar plate compared with aligned plate ([2]; E-4031 0.3 μM, day 6): significantly longer | Duration of Ca transient, planar plate ([2]; E-4031 1 μM, day 6): not significantly but remarkably extended

Cc1[nH]c(=O)c(C#N)cc1-c1ccncc1 [Milrinone]
beating rate (BR), relative to dose0 ([4]; aligned plate): increased | contractile velocity (CV), relative to dose0 ([4]; aligned plate): increased | relaxation velocity (RV), relative to dose0 ([4]; aligned plate): increased | RV, aligned plate compared to planar plate ([4]; milrinone): significantly increased | contractile velocity (CV), aligned plate compared to planar plate ([4]; milrinone dose3 (300 μM)): significantly increased | relaxation velocity (RV), aligned plate compared to before the drug addition ([4]; milrinone dose3 (300 μM)): predominantly increased | beating rate (BR), aligned plate compared to before the drug addition ([4]; milrinone, all doses (30, 100, 300 μM)): predominantly increased | beating rate (BR), relative to dose0 ([4]; planar plate): did not change | contractile velocity (CV), relative to dose0 ([4]; planar plate): tended to reduce | relaxation velocity (RV), relative to dose0 ([4]; planar plate): tended to reduce

CC(C)NCC(O)c1ccc(O)c(O)c1 (stereo not drawn) [Isoproterenol]
arrhythmia or the like ([3]; aligned and planar plate, any concentration (1, 3, 10 μM)): No arrhythmia or the like was observed | CRD (corrected with beating rate) ([3]; aligned plate): extended | beating rate (BR) ([3]; aligned plate): tended to increase | relaxation velocity (RV) ([3]; aligned plate): tended to increase | change of CRD compared with the solvent (DMSO) ([3]; planar plate, 1, 3, 10 μM): largely different from that of the solvent (DMSO) | CRD (corrected with beating rate) ([3]; planar plate): extended | beating rate (BR) ([3]; planar plate): tended to increase | relaxation velocity (RV) ([3]; planar plate): tended to increase | beating rate (BR), relative to dose0 ([4]; aligned plate): increased | contractile velocity (CV), relative to dose0 ([4]; aligned plate): increased | relaxation velocity (RV), relative to dose0 ([4]; aligned plate): increased | relaxation velocity, aligned plate compared to planar plate ([4]; isoproterenol dose2 (0.3 μM) and dose3 (3 μM)): increased | beating rate (BR), relative to dose0 ([4]; planar plate): increased | contractile velocity (CV), relative to dose0 ([4]; planar plate): tended to reduce | relaxation velocity (RV), relative to dose0 ([4]; planar plate): increased | duration (20% waveform width of Ca transient) [2, 6]: Reduction was observed | interval between peaks of Ca transient [2, 6]: Reduction was observed | arrhythmia ([2]; aligned and planar plates, up to high concentration (Dose3, 10 μM)): arrhythmia did not occur | reduction in duration ([2]; planar plate, isoproterenol 1, 3, 10 μM): small

COc1cc(N)c(Cl)cc1C(=O)NC1CCN(CCCOc2ccc(F)cc2)CC1OC (stereo not drawn) [Cisapride]
duration (20% waveform width of Ca transient) [2, 6]: extended in a dose-dependent manner | interval between peaks of Ca transient [2, 6]: extended in a dose-dependent manner | incidence of arrhythmia ([2]; aligned plate, cisapride Dose1 0.01 μM to Dose3 0.1 μM, wells of 6): 1/6 | difference between the value at Dose0 and at Dose3 (duration, interval), aligned plate versus planar plate ([2]; cisapride, Dose3 0.1 μM): smaller | incidence of arrhythmia ([2]; planar plate, cisapride 0.01-0.1 μM): No arrhythmia occurred

COc1cccc2c1C(=O)c1c(O)c3c(c(O)c1C2=O)C[C@@](O)(C(=O)CO)C[C@@H]3O[C@H]1C[C@H](N)[C@H](O)[C@H](C)O1 [Doxorubicin, doxorubicin]
beating rate, aligned plate compared to planar plate [5]: significantly increased | beating rate, result after 48 hours compared with after 24 hours [5]: more increased | RV, aligned plate compared to planar plate ([5]; after 48 hours): significantly increased | relaxation velocity (RV), change rate vs pre-measurement ([5]; aligned plate): increased | beating rate (BR), change rate vs pre-measurement ([5]; aligned plate): increased | relaxation velocity (RV), change rate vs pre-measurement ([5]; planar plate): increased | beating rate (BR), change rate vs pre-measurement ([5]; planar plate): increased
